Values of other authors in patent US20250009664A1, “DOSAGE FORM FOR INTRA-[…] INJECTION […] USE IN THE TREATMENT OF CRYSTAL-AND NON-CRYSTAL […] IN[…]” (priority 2021, published 2025).

Details: literature

## COc1cc2c(c(OC)c1OC)-c1ccc(OC)c(=O)cc1[C@@H](NC(C)=O)CC2 [colchicine, N-[(7S)-1,2,3,10-tetramethoxy-9-oxo-6,7-dihydro-5H-benzo[a]heptalen-7-yl]acetamide]
  lethal dose: 0.8 mg/kg
  toxicity limit: 0.1 mg/kg
